These results are taken from PubChem BioAssay (NCI).

Among the test systems are OVCAR-3 ovarian; TK-10 renal; OVCAR-8 ovarian; MDA-MB-435; UACC-257 melanoma; MALME-3M melanoma; LOX IMVI melanoma; NCI-H23 lung; SK-MEL-5 melanoma; SNB-75 CNS.
Holding throughout (test): growth of human tumour cells (NCI), 48 h

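All cell lines were grown in 96-well plates and treated with compound for 48 hours. The concentration for 50% growth inhibition is given as GI50. TGI: concentration producing complete growth inhibition.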

Turning to `COc1ccc(OC)c(C(=O)c2oc3ccc(Br)cc3c2N)c1`, the GI50 with OVCAR-3 ovarian was 347 nM; in the test with TK-10 renal, 1740 nM; with OVCAR-8 ovarian, 576 nM; in the test on MDA-MB-435, 46.6 nM; in the test on UACC-257 melanoma, 392 nM; in the test on MALME-3M melanoma, 339 nM. For the same compound, the GI50 in the test on LOX IMVI melanoma was 581 nM; in the test on NCI-H23 lung, 649 nM; in the test with SK-MEL-5 melanoma it was 410 nM; in the test on SNB-75 CNS it was 253 nM. The TGI in the test on OVCAR-3 ovarian amounted to 3280 nM; in the test on TK-10 renal, 87700 nM; with OVCAR-8 ovarian, 97900 nM; with MDA-MB-435 it was 253 nM; with UACC-257 melanoma, 21800 nM; with MALME-3M melanoma, 46800 nM. For the same compound, the TGI in the test with LOX IMVI melanoma came to 22400 nM; in the test with NCI-H23 lung, 24000 nM; with SK-MEL-5 melanoma, 16900 nM; in the test with SNB-75 CNS, 1680 nM.

With `COC(=O)C12C3C4C1C1C2C3C41NC(=O)c1csc([C@@H](C[C@H](C(C)C)N(C)C(=O)[C@@H](NC(=O)[C@H]2CCCCN2C)C2CC2)OC(C)=O)n1` (stereo not given in full), the GI50 is 11.7 nM with OVCAR-3 ovarian; 4390 nM in the test on TK-10 renal; 40.4 nM in the test on OVCAR-8 ovarian; less than 3.33 nM in the test with MDA-MB-435; greater than 16600 nM with UACC-257 melanoma; 58.1 nM with MALME-3M melanoma. The GI50 is 8.82 nM with LOX IMVI melanoma, 151 nM in the test on NCI-H23 lung, 9.77 nM in the test on SK-MEL-5 melanoma and 5.95 nM in the test with SNB-75 CNS. For the same compound, the TGI was 860 nM in the test with OVCAR-3 ovarian; greater than 33300 nM with TK-10 renal; greater than 33300 nM with OVCAR-8 ovarian; 9.92 nM with MDA-MB-435; greater than 33300 nM in the test on UACC-257 melanoma; greater than 33300 nM in the test with MALME-3M melanoma. For the same compound, the TGI is greater than 33300 nM in the test with LOX IMVI melanoma, greater than 33300 nM with NCI-H23 lung, 526 nM with SK-MEL-5 melanoma and greater than 33300 nM in the test with SNB-75 CNS.
